# Experimental data from ChEMBL document CHEMBL5584343, “Cerastecin Inhibition of the Lipooligosaccharide Transporter MsbA to Combat Acinetobacter baumannii: From Screening Impurity to In Vivo Efficacy” (J Med Chem, 2024).
# Tests used:
# [1] = Inhibition of wildtype Acinetobacter baumannii MsbA preincubated for 30 mins followed by ATP addition and measured after 1 hrs by Transcreener ADP2 F1 assay
# Acinetobacter baumannii [2] = experiment: Antibacterial activity against Acinetobacter baumannii ATCC19606 incubated for 18 to 20 hrs in presence of 1% of human serum by microbroth dilution method; type: functional; settings: time 18-20 hrs
# Acinetobacter baumannii [3] = experiment: Antibacterial activity against Acinetobacter baumannii ATCC19606 assessed as bacterial growth inhibition incubated for 18 to 20 hrs by microbroth dilution method; type: functional; settings: time 18-20 hrs
# Acinetobacter baumannii [4] = experiment: Selectivity ratio of MIC95 for antibacterial activity against Acinetobacter baumannii ATCC19606 in the presence of 1% human serum to MIC95 for antibacterial activity against Acinetobacter baumannii ATCC19606; type: functional
SMILES,EC50 [1],MIC95 (Acinetobacter baumannii [2]),MIC95 (Acinetobacter baumannii [3]),Selectivity ratio (Acinetobacter baumannii [4])
CCCCc1ccc(S(=O)(=O)Nc2ccc(NC(=O)CCC(=O)Nc3ccc(NS(=O)(=O)c4ccc(CCCC)cc4)c(C(N)=O)c3)cc2C(N)=O)cc1,512 nM,> 200 µM,> 200 µM,
CCCCc1ccc(S(=O)(=O)Nc2ccc(NCCCCNc3ccc(NS(=O)(=O)c4ccc(CCCC)cc4)c(C(=O)O)c3)cc2C(=O)O)cc1,623 nM,12.5 µM,0.783 µM,16
CCCCc1ccc(S(=O)(=O)Nc2ccc(NC(=O)CCC(=O)Nc3ccc(NS(=O)(=O)c4ccc(CCCC)cn4)c(C(=O)O)c3)cc2C(=O)O)nc1,1790 nM,200 µM,25 µM,8
CCCCc1ccc(C(=O)Nc2ccc(NC(=O)CCC(=O)Nc3ccc(NS(=O)(=O)c4ccc(CCCC)cc4)c(C(=O)O)c3)cc2C(=O)O)cc1,> 198000 nM,> 200 µM,> 200 µM,
CCCCc1ccc(S(=O)(=O)Nc2ccc(NC(=O)CCC(=O)Nc3ccc(NS(=O)(=O)c4ccc(CCCC)cc4)c(-c4nn[nH]n4)c3)cc2C(=O)O)cc1,291 nM,25 µM,0.553 µM,45
CCCCc1ccc(S(=O)(=O)Nc2ccc(NC(=O)CCC(=O)Nc3ccc(NS(C)(=O)=O)c(C(=O)O)c3)cc2C(=O)O)cc1,6400 nM,200 µM,100 µM,2
CCCCc1ccc(S(=O)(=O)Nc2ccc(CNCCC(=O)Nc3ccc(NS(=O)(=O)c4ccc(CCCC)cc4)c(C(=O)O)c3)cc2C(=O)O)cc1,308 nM,1.56 µM,0.277 µM,5.6
CCCCc1ccc(S(=O)(=O)Nc2ccc(N(C)C(=O)CCC(=O)N(C)c3ccc(NS(=O)(=O)c4ccc(CCCC)cc4)c(C(=O)O)c3)cc2C(=O)O)cc1,> 198000 nM,> 200 µM,> 200 µM,
CCCCc1ccc(S(=O)(=O)Nc2ccc(NC(=O)CCC(=O)Nc3ccc(N)c(C(=O)O)c3)cc2C(=O)O)cc1,> 66200 nM,> 200 µM,> 200 µM,
CCCCc1ccc(S(=O)(=O)Nc2ccc(NC(=O)CCCOc3ccc(NS(=O)(=O)c4ccc(CCCC)cc4)c(C(=O)O)c3)cc2C(=O)O)cc1,16 nM,6.25 µM,0.069 µM,91
CCCCc1ccc(S(=O)(=O)Nc2ccc(NC(=O)CCC(=O)Nc3ccc(NS(=O)(=O)c4ccc(N5CCOCC5)nc4)c(C(=O)O)c3)cc2C(=O)O)cc1,188 nM,25 µM,1.56 µM,16
CCCCc1ccc(S(=O)(=O)Nc2ccc(NC(=O)CCNC(=O)c3ccc(NS(=O)(=O)c4ccc(CCCC)cc4)c(C(=O)O)c3)cc2C(=O)O)cc1,83 nM,11.3 µM,0.112 µM,101
CCCCc1ccc(S(=O)(=O)Nc2ccc(NC(=O)CCC(=O)Nc3ccc(NS(=O)(=O)c4ccc(CCCC)cc4)c(C(=O)O)c3)c(C(=O)O)c2)cc1,124 nM,12.5 µM,0.391 µM,32
CCCCc1ccc(S(=O)(=O)Nc2ccc(NC(=O)CCC(=O)Nc3ccc(NS(=O)(=O)c4ccccc4)c(C(=O)O)c3)cc2C(=O)O)cc1,311 nM,12.5 µM,0.782 µM,16
CCCCc1ccc(S(=O)(=O)Nc2ccc(NC(=O)CCC(=O)Nc3ccc(NS(=O)(=O)c4ccc(CCCC)cc4)c(C(=O)O)c3)cc2C#N)cc1,1600 nM,> 200 µM,> 200 µM,
CCCCc1ccc(S(=O)(=O)Nc2ccc(NC(=O)CCC(=O)Nc3ccc(NS(=O)(=O)c4ccc(CCCC)cc4)c(C(=O)O)c3)cc2F)cc1,1170 nM,> 200 µM,> 200 µM,
CCCCc1ccc(S(=O)(=O)N(C)c2ccc(NC(=O)CCC(=O)Nc3ccc(N(C)S(=O)(=O)c4ccc(CCCC)cc4)c(C(=O)O)c3)cc2C(=O)O)cc1,> 198000 nM,> 200 µM,> 200 µM,

SMILES,EC50 [1],MIC95 (Acinetobacter baumannii [2]),MIC95 (Acinetobacter baumannii [3]),Selectivity ratio (Acinetobacter baumannii [4])
CCCCc1ccc(S(=O)(=O)Nc2ccc(NC(=O)CCC(=O)Nc3ccc(NS(=O)(=O)c4ccc(CCCC)cc4)c(C(=O)O)c3)cc2)cc1,790 nM,> 200 µM,0.781 µM,>256
CCCCc1ccc(S(=O)(=O)Nc2ccc(NC(=O)/C=C\C(=O)Nc3ccc(NS(=O)(=O)c4ccc(CCCC)cc4)c(C(=O)O)c3)cc2C(=O)O)cc1,27 nM,8.84 µM,0.277 µM,32
CCCCc1ccc(S(=O)(=O)Nc2ccc(C(=O)NCCNC(=O)c3ccc(NS(=O)(=O)c4ccc(CCCC)cc4)c(C(=O)O)c3)cc2C(=O)O)cc1,> 198000 nM,> 200 µM,> 200 µM,
CCCCc1ccc(S(=O)(=O)Nc2ccc(NC(=O)CCC(=O)Nc3ccc(NS(=O)(=O)c4ccc(CCCC)nc4)c(C(=O)O)c3)cc2C(=O)O)cc1,64 nM,12.5 µM,0.196 µM,64
O=C(CCC(=O)Nc1ccc(NS(=O)(=O)c2ccc(Oc3ccccc3)nc2)c(C(=O)O)c1)Nc1ccc(NS(=O)(=O)c2ccc(Oc3ccccc3)nc2)c(C(=O)O)c1,136 nM,6.25 µM,0.196 µM,32
CCCCc1ccc(S(=O)(=O)Nc2ccc(NC(=O)CCC(=O)Nc3ccc(NS(=O)(=O)c4ccc(CCCC)cc4)c(P(=O)(O)O)c3)cc2C(=O)O)cc1,416 nM,25 µM,1.56 µM,16
CCCCc1ccc(S(=O)(=O)Nc2ccc(NC(=O)CCC(=O)Nc3ccc(NS(=O)(=O)c4ccc(CCCC)cc4)c(S(=O)(=O)O)c3)cc2C(=O)O)cc1,37 nM,12.5 µM,0.196 µM,64
CCCCc1ccc(S(=O)(=O)Nc2ccc(NC(=O)CCC(=O)Nc3ccc(NS(=O)(=O)c4ccc(CCCC)cc4)c(C(=O)O)c3)cc2O)cc1,626 nM,25 µM,1.56 µM,16
CCCCc1ccc(S(=O)(=O)Nc2ccc(NC/C=C\CNc3ccc(NS(=O)(=O)c4ccc(CCCC)cc4)c(C(=O)O)c3)cc2C(=O)O)cc1,> 198000 nM,25 µM,3.12 µM,8
CCCCc1ccc(S(=O)(=O)Nc2ccc(NC(=O)CCC(=O)Nc3ccc(NS(=O)(=O)c4ccc(CCCC)nc4)c(C(=O)O)c3)cc2C(=O)O)cn1,82 nM,25 µM,2.21 µM,11
CCCCc1ccc(NS(=O)(=O)c2ccc(NC(=O)CCC(=O)Nc3ccc(NS(=O)(=O)c4ccc(CCCC)cc4)c(C(=O)O)c3)cc2C(=O)O)cc1,597 nM,25 µM,0.783 µM,32
CCCCc1ccc(S(=O)(=O)Nc2ccc(NC(=O)CCC(=O)Nc3cccc(C(=O)O)c3)cc2C(=O)O)cc1,32400 nM,> 200 µM,> 200 µM,
CCCCc1ccc(S(=O)(=O)Nc2ccc(NC(=O)CCC(=O)Nc3ccc(NS(=O)(=O)c4ccc(CCCC)cc4)c(C(=O)OCC)c3)cc2C(=O)OCC)cc1,> 198000 nM,> 200 µM,> 200 µM,
CCCCc1ccc(S(=O)(=O)Nc2ccc(NC(=O)CCC(=O)Nc3ccc(NS(=O)(=O)c4ccc(OC)nc4)c(C(=O)O)c3)cc2C(=O)O)cc1,92 nM,25 µM,1.56 µM,16
CCCCc1ccc(S(=O)(=O)Nc2ccc(NC(=O)[C@H]3C[C@@H]3C(=O)Nc3ccc(NS(=O)(=O)c4ccc(CCCC)cc4)c(C(=O)O)c3)cc2C(=O)O)cc1 (racemic),> 22100 nM,> 200 µM,1.1 µM,>181
CCCCc1ccc(S(=O)(=O)Nc2ccc(NC(=O)CCC(=O)Nc3ccc(NS(=O)(=O)c4ccc(CCCC)cc4)c(C(=O)O)c3)cc2CO)cc1,1240 nM,> 200 µM,6.25 µM,>32
CCCCc1ccc(S(=O)(=O)Nc2ccc(NC(=O)CCC(=O)Nc3ccc(NS(=O)(=O)c4ccc(CCCC)cc4)c(C(=O)NC)c3)cc2C(=O)O)cc1,765 nM,> 200 µM,> 200 µM,
